# System: 624824-186-R-J2-PDC multicell spheroids, viability
# Assay: Anticancer human tumor 624824-186-R-J2-PDC patient-derived colon adenocarcinoma cell line growth inhibition [PI3K]
# Settings: for IC50: curve of first compound; for viability, T/C: stronger effect = lower value
# Method in brief: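 Tumor cells were combined with HUVEC and MSCs into spheroids, then dosed with PI3K-inhibitor combinations over half-log ranges capped near clinical Cmax or 10 microM.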
# [1] = second compound 0.00316 µM, first compound 0.0316 µM
# [2] = second compound 0.00316 µM, first compound 0.1 µM
# [3] = second compound 0.01 µM, first compound 0.0316 µM
# [4] = second compound 0.01 µM, first compound 0.1 µM
# [5] = second compound 0.0316 µM, first compound 0.0316 µM
# [6] = second compound 0.0316 µM, first compound 0.1 µM
# [7] = second compound 0.1 µM, first compound 0.0316 µM
# [8] = second compound 0.1 µM, first compound 0.1 µM
# [9] = second compound 0.316 µM, first compound 0.0316 µM
# [10] = second compound 0.316 µM, first compound 0.1 µM
# [11] = second compound 1 µM, first compound 0.0316 µM
# [12] = second compound 1 µM, first compound 0.1 µM
# 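Note: spheroids exposed to agents for 7 days before viability read.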
# 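Throughout, for viability, T/C: 100% = DMSO vehicle treated spheroids.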
smiles,measurement,setting,value
CC(=O)c1c(C)c2cnc(Nc3ccc(N4CCNCC4)cn3)nc2n(C2CCCC2)c1=O + COc1c(OCCCN2CCOCC2)ccc2c3n(c(=NC(=O)c4cnc(N)nc4)nc12)CCN3,IC50,second compound 0.00316 µM,> 100 nM
same,IC50,second compound 0.01 µM,> 100 nM
same,IC50,second compound 0.0316 µM,> 100 nM
same,IC50,second compound 0.1 µM,> 100 nM
same,IC50,second compound 0.316 µM,> 100 nM
same,IC50,second compound 1 µM,> 100 nM
same,"viability, T/C","second compound 0.00316 µM, first compound 0.000316 µM",95.5%
same,"viability, T/C","second compound 0.00316 µM, first compound 0.001 µM",94.7%
same,"viability, T/C","second compound 0.00316 µM, first compound 0.00316 µM",90.6%
same,"viability, T/C","second compound 0.00316 µM, first compound 0.01 µM",98.7%
same,"viability, T/C",[1],105%
same,"viability, T/C",[2],84%
same,"viability, T/C","second compound 0.01 µM, first compound 0.000316 µM",104%
same,"viability, T/C","second compound 0.01 µM, first compound 0.001 µM",90%
same,"viability, T/C","second compound 0.01 µM, first compound 0.00316 µM",86.7%
same,"viability, T/C","second compound 0.01 µM, first compound 0.01 µM",94.3%
same,"viability, T/C",[3],97.6%
same,"viability, T/C",[4],96.5%
same,"viability, T/C","second compound 0.0316 µM, first compound 0.000316 µM",82.7%
same,"viability, T/C","second compound 0.0316 µM, first compound 0.001 µM",94.4%
same,"viability, T/C","second compound 0.0316 µM, first compound 0.00316 µM",91.4%
same,"viability, T/C","second compound 0.0316 µM, first compound 0.01 µM",86.7%
same,"viability, T/C",[5],89%
same,"viability, T/C",[6],69.2%
same,"viability, T/C","second compound 0.1 µM, first compound 0.000316 µM",65.9%
same,"viability, T/C","second compound 0.1 µM, first compound 0.001 µM",77.2%
same,"viability, T/C","second compound 0.1 µM, first compound 0.00316 µM",78.2%
same,"viability, T/C","second compound 0.1 µM, first compound 0.01 µM",70.8%
same,"viability, T/C",[7],70%
same,"viability, T/C",[8],55.6%
same,"viability, T/C","second compound 0.316 µM, first compound 0.000316 µM",61.4%
same,"viability, T/C","second compound 0.316 µM, first compound 0.001 µM",68.6%
same,"viability, T/C","second compound 0.316 µM, first compound 0.00316 µM",61.4%
same,"viability, T/C","second compound 0.316 µM, first compound 0.01 µM",57.9%
same,"viability, T/C",[9],66.9%
same,"viability, T/C",[10],53.4%
same,"viability, T/C","second compound 1 µM, first compound 0.000316 µM",59%
same,"viability, T/C","second compound 1 µM, first compound 0.001 µM",58%
same,"viability, T/C","second compound 1 µM, first compound 0.00316 µM",58.7%
same,"viability, T/C","second compound 1 µM, first compound 0.01 µM",58.4%
same,"viability, T/C",[11],62.9%
same,"viability, T/C",[12],55.7%
CNC(=O)c1ccc(N2C(=S)N(c3ccc(C#N)c(C(F)(F)F)c3)C(=O)C2(C)C)cc1F + COc1c(OCCCN2CCOCC2)ccc2c3n(c(=NC(=O)c4cnc(N)nc4)nc12)CCN3,IC50,second compound 0.00316 µM,> 10000 nM
same,IC50,second compound 0.01 µM,> 10000 nM
same,IC50,second compound 0.0316 µM,> 10000 nM
same,IC50,second compound 0.1 µM,> 10000 nM
same,IC50,second compound 0.316 µM,> 10000 nM
same,IC50,second compound 1 µM,> 10000 nM
same,"viability, T/C",[1],77.2%
same,"viability, T/C",[2],74%
same,"viability, T/C","second compound 0.00316 µM, first compound 0.316 µM",76.4%
same,"viability, T/C","second compound 0.00316 µM, first compound 1 µM",91.7%
same,"viability, T/C","second compound 0.00316 µM, first compound 3.16 µM",89.6%
same,"viability, T/C","second compound 0.00316 µM, first compound 10 µM",110%
same,"viability, T/C",[3],110%
same,"viability, T/C",[4],103%
same,"viability, T/C","second compound 0.01 µM, first compound 0.316 µM",99.3%
same,"viability, T/C","second compound 0.01 µM, first compound 1 µM",94%
same,"viability, T/C","second compound 0.01 µM, first compound 3.16 µM",96.9%
same,"viability, T/C","second compound 0.01 µM, first compound 10 µM",99%
same,"viability, T/C",[5],90.4%
same,"viability, T/C",[6],81.7%
same,"viability, T/C","second compound 0.0316 µM, first compound 0.316 µM",96.6%
same,"viability, T/C","second compound 0.0316 µM, first compound 1 µM",96.5%
same,"viability, T/C","second compound 0.0316 µM, first compound 3.16 µM",78.4%
same,"viability, T/C","second compound 0.0316 µM, first compound 10 µM",89.7%
same,"viability, T/C",[7],95.6%
same,"viability, T/C",[8],71.8%
same,"viability, T/C","second compound 0.1 µM, first compound 0.316 µM",73.4%
same,"viability, T/C","second compound 0.1 µM, first compound 1 µM",84%
same,"viability, T/C","second compound 0.1 µM, first compound 3.16 µM",79.9%
same,"viability, T/C","second compound 0.1 µM, first compound 10 µM",70.9%
same,"viability, T/C",[9],62.2%
same,"viability, T/C",[10],66.3%
same,"viability, T/C","second compound 0.316 µM, first compound 0.316 µM",65%
same,"viability, T/C","second compound 0.316 µM, first compound 1 µM",61.5%
same,"viability, T/C","second compound 0.316 µM, first compound 3.16 µM",65.4%
same,"viability, T/C","second compound 0.316 µM, first compound 10 µM",65.3%
same,"viability, T/C",[11],65%
same,"viability, T/C",[12],61.6%
same,"viability, T/C","second compound 1 µM, first compound 0.316 µM",57.2%
same,"viability, T/C","second compound 1 µM, first compound 1 µM",62.5%
same,"viability, T/C","second compound 1 µM, first compound 3.16 µM",63%
same,"viability, T/C","second compound 1 µM, first compound 10 µM",57.3%
Cn1cnc2c(F)c(Nc3ccc(Br)cc3Cl)c(C(=O)NOCCO)cc21 + COc1c(OCCCN2CCOCC2)ccc2c3n(c(=NC(=O)c4cnc(N)nc4)nc12)CCN3,IC50,second compound 0.00316 µM,> 3000 nM
same,IC50,second compound 0.01 µM,> 3000 nM
same,IC50,second compound 0.0316 µM,243 nM
same,IC50,second compound 0.1 µM,38 nM
same,IC50,second compound 0.316 µM,< 9.49 nM
same,IC50,second compound 1 µM,< 9.49 nM
same,"viability, T/C","second compound 0.00316 µM, first compound 0.00949 µM",86%
same,"viability, T/C","second compound 0.00316 µM, first compound 0.03 µM",74.6%
same,"viability, T/C","second compound 0.00316 µM, first compound 0.0949 µM",64.4%
same,"viability, T/C","second compound 0.00316 µM, first compound 0.3 µM",68.7%
same,"viability, T/C","second compound 0.00316 µM, first compound 0.949 µM",72.8%
same,"viability, T/C","second compound 0.00316 µM, first compound 3 µM",63.1%
same,"viability, T/C","second compound 0.01 µM, first compound 0.00949 µM",79.3%
same,"viability, T/C","second compound 0.01 µM, first compound 0.03 µM",75.7%
same,"viability, T/C","second compound 0.01 µM, first compound 0.0949 µM",66.5%
same,"viability, T/C","second compound 0.01 µM, first compound 0.3 µM",62.6%
same,"viability, T/C","second compound 0.01 µM, first compound 0.949 µM",62.8%
same,"viability, T/C","second compound 0.01 µM, first compound 3 µM",51.4%
same,"viability, T/C","second compound 0.0316 µM, first compound 0.00949 µM",70.8%
same,"viability, T/C","second compound 0.0316 µM, first compound 0.03 µM",59.2%
same,"viability, T/C","second compound 0.0316 µM, first compound 0.0949 µM",53%
same,"viability, T/C","second compound 0.0316 µM, first compound 0.3 µM",51.5%
same,"viability, T/C","second compound 0.0316 µM, first compound 0.949 µM",42.4%
same,"viability, T/C","second compound 0.0316 µM, first compound 3 µM",28.5%
same,"viability, T/C","second compound 0.1 µM, first compound 0.00949 µM",60%
same,"viability, T/C","second compound 0.1 µM, first compound 0.03 µM",54.6%
same,"viability, T/C","second compound 0.1 µM, first compound 0.0949 µM",36%
same,"viability, T/C","second compound 0.1 µM, first compound 0.3 µM",37.4%
same,"viability, T/C","second compound 0.1 µM, first compound 0.949 µM",31.4%
same,"viability, T/C","second compound 0.1 µM, first compound 3 µM",15.3%
same,"viability, T/C","second compound 0.316 µM, first compound 0.00949 µM",50.7%
same,"viability, T/C","second compound 0.316 µM, first compound 0.03 µM",38.9%
same,"viability, T/C","second compound 0.316 µM, first compound 0.0949 µM",39.9%
same,"viability, T/C","second compound 0.316 µM, first compound 0.3 µM",28.3%
same,"viability, T/C","second compound 0.316 µM, first compound 0.949 µM",18.9%
same,"viability, T/C","second compound 0.316 µM, first compound 3 µM",2.2%
same,"viability, T/C","second compound 1 µM, first compound 0.00949 µM",49.1%
same,"viability, T/C","second compound 1 µM, first compound 0.03 µM",39.7%
same,"viability, T/C","second compound 1 µM, first compound 0.0949 µM",33.5%
same,"viability, T/C","second compound 1 µM, first compound 0.3 µM",26.4%
same,"viability, T/C","second compound 1 µM, first compound 0.949 µM",11.1%
same,"viability, T/C","second compound 1 µM, first compound 3 µM",1.13%

# — PubChem BioAssay AID1963975 (Molecular Pharmacology Branch, DTP, NCI, 2024)
